Test results from US4508663A, “Process for preparing thiosulfenamide derivatives of N-phosphonomethylglycinonitriles” (Monsanto Company, priority 1983, dated 1985).

What was measured:
Assay in all cases: post-emergence herbicidal activity, greenhouse
Type in all cases: in vivo
Canada Thistle = conditions: Table I, 4 WAT
Text: (§1) A good grade of top soil is placed in aluminum pans having holes in the bottom and compacted to a depth of 0.95 to 1.27 cm. from the top of the pan. A predetermined number of seeds of each of several dicotyledonous and monocotyledonous annual plant species and/or vegetative propagules for the perennial plant species are placed on the soil and pressed into the soil surface. The seeds and/or vegetative propagules are covered with soil and leveled. The pans are then placed on a sand bench in the greenhouse and watered from below as needed. After the plants reach the desired age (two to three weeks), each pan except for the control pans is removed individually to a spraying chamber and sprayed by means of an atomizer operating at a positive air pressure of approximately 1.46 kg/cm^2 absolute. The atomizer contains 6 ml. of a solution or suspension of the chemical. In that 6 ml., is an amount of a cyclohexanone emulsifying agent mixture to give a spray solution or suspension which contains about 0.4% by weight of the emulsifier. The spray solution or suspension contains a sufficient amount of the candidate chemical in order to give application rates corresponding to those set forth in the tables. The spray solution is prepared by taking an aliquot of a 1.0% by weight stock solution or suspension of the candidate chemical in an organic solvent such as acetone or tetrahydrofuran or in water. The emulsifying agent employed is a mixture comprising 35 weight percent butylamine dodecylbenzene sulfonate and 65 weight percent of a tall oil ethylene oxide condensate having about 11 moles of ethylene oxide per mole of tall oil. The pans are returned to the greenhouse and watered as before and the injury to the plants as compared to the control is observed at approximately two and four weeks as indicated in the tables under WAT and the results recorded. In some instances, the two-week observations are omitted.
(§2) The post-emergence herbicidal activity index used in Table I is as follows: […]

Quackgrass = conditions: Table I
Text: as §1, §2

Cocklebur = test system: Cocklebur
Text: as §1, §2

Johnsongrass = conditions: Table I
Text: as §1, §2

Smartweed = test system: Smartweed
Text: as §1, §2

Lambsquarters = test system: Lambsquarters
Text: as §1, §2

Morningglory = test system: Morningglory
Text: as §1, §2

Velvetleaf = test system: Velvetleaf
Text: as §1, §2

Yellow Nutsedge = conditions: Table I
Text: as §1, §2

Barnyardgrass = test system: Barnyardgrass
Text: as §1, §2

Downy Brome = test system: Downy Brome
Text: as §1, §2

Rice = conditions: Table II, 2 WAT
Text: as §1, §2

Panicum Spp = conditions: Table II, 2 WAT
Text: as §1, §2

Wheat = conditions: Table II, 2 WAT
Text: as §1, §2

Sorghum = conditions: Table II, 2 WAT
Text: as §1, §2

Sugar Beet = conditions: Table II, 2 WAT
Text: as §1, §2

Wild Buckwheat = conditions: Table II, 2 WAT
Text: as §1, §2

Crabgrass = conditions: Table II, 2 WAT
Text: as §1, §2

Soybean = conditions: Table II, 2 WAT
Text: as §1, §2

Hemp Sesbania = conditions: Table II, 2 WAT
Text: as §1, §2

Measured: post-emergence herbicidal activity index

COc1ccc(SSN(CC#N)CP(=O)(Oc2ccccc2)Oc2ccccc2)cc1 [III, Phosphonic acid, [[(cyanomethyl)[(4-methoxyphenyl)-dithio]amino]methyl]-, diphenyl ester]
1 (25-49% control): Quackgrass; 4 WAT, 11.2 kg/h | Cocklebur; Table I, 4 WAT, 5.6 kg/h | Morningglory; Table I, 4 WAT, 5.6 kg/h | Velvetleaf; Table I, 4 WAT, 5.6 kg/h | Velvetleaf; Table I, 4 WAT, 11.2 kg/h | Yellow Nutsedge; 4 WAT, 5.6 kg/h
0 (0-24% control): Quackgrass; 4 WAT, 5.6 kg/h | Smartweed; Table I, 4 WAT, 11.2 kg/h | Downy Brome; Table I, 4 WAT, 5.6 kg/h
4 (100% control): Lambsquarters; Table I, 4 WAT, 11.2 kg/h
2 (50-74% control): Canada Thistle; 5.6 kg/h | Canada Thistle; 11.2 kg/h | Cocklebur; Table I, 4 WAT, 11.2 kg/h | Johnsongrass; 4 WAT, 5.6 kg/h | Johnsongrass; 4 WAT, 11.2 kg/h | Morningglory; Table I, 4 WAT, 11.2 kg/h | Yellow Nutsedge; 4 WAT, 11.2 kg/h | Barnyardgrass; Table I, 4 WAT, 5.6 kg/h | Barnyardgrass; Table I, 4 WAT, 11.2 kg/h | Downy Brome; Table I, 4 WAT, 11.2 kg/h
3 (75-99% control): Lambsquarters; Table I, 4 WAT, 5.6 kg/h

N#CCN(CP(=O)(Oc1ccccc1)Oc1ccccc1)SSc1ccc2ccccc2c1 [IX, Phosphonic acid, [[(cyanomethyl)(2-naphthalenyldithio)amino]methyl]-, diphenyl ester]
0 (0-24% control): Quackgrass; 2 WAT, 5.6 kg/h | Rice; 0.28 kg/h | Rice; 1.12 kg/h | Rice; 5.6 kg/h | Panicum Spp; 0.28 kg/h | Panicum Spp; 1.12 kg/h | Panicum Spp; 5.6 kg/h | Cocklebur; Table I, 2 WAT, 5.6 kg/h | Cocklebur; Table II, 2 WAT, 0.28 kg/h | Cocklebur; Table II, 2 WAT, 1.12 kg/h | Smartweed; Table I, 2 WAT, 5.6 kg/h | Smartweed; Table II, 2 WAT, 0.28 kg/h | Smartweed; Table II, 2 WAT, 1.12 kg/h | Lambsquarters; Table II, 2 WAT, 0.28 kg/h | Lambsquarters; Table II, 2 WAT, 1.12 kg/h | Wheat; 0.28 kg/h | Wheat; 1.12 kg/h | Sorghum; 0.28 kg/h | Sorghum; 1.12 kg/h | Sugar Beet; 0.28 kg/h | Sugar Beet; 1.12 kg/h | Sugar Beet; 5.6 kg/h | Morningglory; Table I, 2 WAT, 5.6 kg/h | Morningglory; Table I, 4 WAT, 11.2 kg/h | Morningglory; Table II, 2 WAT, 0.28 kg/h | Morningglory; Table II, 2 WAT, 1.12 kg/h | Velvetleaf; Table II, 2 WAT, 0.28 kg/h | Velvetleaf; Table II, 2 WAT, 1.12 kg/h | Velvetleaf; Table II, 2 WAT, 5.6 kg/h | Yellow Nutsedge; 2 WAT, 5.6 kg/h | Yellow Nutsedge; 4 WAT, 11.2 kg/h | Wild Buckwheat; 0.28 kg/h | Wild Buckwheat; 1.12 kg/h | Barnyardgrass; Table I, 2 WAT, 5.6 kg/h | Barnyardgrass; Table II, 2 WAT, 0.28 kg/h | Barnyardgrass; Table II, 2 WAT, 1.12 kg/h | Crabgrass; 0.28 kg/h | Crabgrass; 1.12 kg/h | Soybean; 0.28 kg/h | Soybean; 1.12 kg/h | Soybean; 5.6 kg/h | Hemp Sesbania; 0.28 kg/h | Hemp Sesbania; 1.12 kg/h | Downy Brome; Table I, 2 WAT, 5.6 kg/h | Downy Brome; Table I, 4 WAT, 11.2 kg/h | Downy Brome; Table II, 2 WAT, 0.28 kg/h | Downy Brome; Table II, 2 WAT, 1.12 kg/h | Downy Brome; Table II, 2 WAT, 5.6 kg/h
3 (75-99% control): Smartweed; Table I, 4 WAT, 11.2 kg/h | Lambsquarters; Table I, 4 WAT, 11.2 kg/h | Lambsquarters; Table II, 2 WAT, 5.6 kg/h
2 (50-74% control): Crabgrass; 5.6 kg/h
1 (25-49% control): Quackgrass; 4 WAT, 11.2 kg/h | Cocklebur; Table I, 4 WAT, 11.2 kg/h | Cocklebur; Table II, 2 WAT, 5.6 kg/h | Johnsongrass; 2 WAT, 5.6 kg/h | Johnsongrass; 4 WAT, 11.2 kg/h | Smartweed; Table II, 2 WAT, 5.6 kg/h | Lambsquarters; Table I, 2 WAT, 5.6 kg/h | Wheat; 5.6 kg/h | Sorghum; 5.6 kg/h | Morningglory; Table II, 2 WAT, 5.6 kg/h | Velvetleaf; Table I, 2 WAT, 5.6 kg/h | Velvetleaf; Table I, 4 WAT, 11.2 kg/h | Wild Buckwheat; 5.6 kg/h | Barnyardgrass; Table I, 4 WAT, 11.2 kg/h | Barnyardgrass; Table II, 2 WAT, 5.6 kg/h | Hemp Sesbania; 5.6 kg/h
